Columns and labels:
E. coli = conditions: cited from earlier work
[1] = test system: E. coli in the urinary tract; experiment: doctor-run trials of mannose dosages in urinary tract infections; type: in vivo; conditions: 2 g three times a day for acute infections; maintenance 1 g one to two times per day
From the text: Because it is difficult for many people to remember a medication that must be taken this often, it is herein disclosed to change this model, as disclosed in the table in FIG. 2. For acute infections, the method is to give a 2-gram (1 teaspoon) dose of mannose three times a day with meals. The maintenance dosage is one-half teaspoon (1 gram) one to two times per day. Children's dosages are half of the adult dosage. For women who experience UTIs after sexual relations, one teaspoon is used an hour prior to intimate relations and an additional one teaspoon immediately following. This regimen provides a quantity of mannose sufficient to remove a majority of E. coli in the urinary tract, while improving the ease of use and compliance.

| Structure (SMILES) | effectiveness in binding to E. coli and inhibiting its attachment, relative to fructose (E. coli; compared with fructose) | effectiveness of the dosages in doctor-run trials [1] | binding to E. coli (E. coli; fructose contained in cranberry juice) |
| --- | --- | --- | --- |
| O=C[C@@H](O)[C@@H](O)[C@H](O)[C@H](O)CO [D-mannose] | ten times more effectively | effective |  |
| O=C(CO)[C@@H](O)[C@H](O)[C@H](O)CO [fructose, reference compound] |  |  | can also bind to E. coli |

Reference: US20040147459A1, “Method and composition for maintaining urinary tract health in the face of infections” (priority 2002, published 2004)
